ChEMBL document CHEMBL5550201, “Discovery of a Highly Potent, Selective and Efficacious USP7 Degrader for the Treatment of Acute Lymphoblastic Leukemia” (J Med Chem, 2024)
Activity calls are given as the source filed them. No cut-off for these calls is given here.

Assays:
RS4-11 [1] = experiment: Antiproliferative activity against human RS4-11 cells with shp53 assessed as cell viability measured after 7 days by PMS-MTS assay; type: functional, cell-based; conditions: RS4-11, 168 h
RS4-11 [2] = experiment: Antitumor activity against human RS4-11 cells xenografted in NOD/SCID mouse model assessed as decrease in USP7 level in tumor at 5 to 20 mg/kg, ip daily measured after 18 days relative to control; type: functional, organism-based; conditions: dose 5-20 mg/kg, time 18.0 day
[3] = molecular target: T1, von Hippel-Lindau disease tumor suppressor/Ubiquitin carboxyl-terminal hydrolase 7 (Homo sapiens, UniProt Q93009+P40337); experiment: PROTACT activity at USP7/VHL in human RS4;11 cells assessed as maximal protein degradation measured after 24 hrs by Western blot analysis relative to control; type: cell-based
Target sequence in this assay (P40337 whole entry, looked up): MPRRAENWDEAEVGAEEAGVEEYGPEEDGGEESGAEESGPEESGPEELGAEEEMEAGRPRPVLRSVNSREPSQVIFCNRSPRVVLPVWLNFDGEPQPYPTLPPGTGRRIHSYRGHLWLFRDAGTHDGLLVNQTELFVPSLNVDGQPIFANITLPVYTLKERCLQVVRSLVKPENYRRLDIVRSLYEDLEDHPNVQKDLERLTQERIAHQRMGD
Target sequence in this assay (Q93009 whole entry, looked up): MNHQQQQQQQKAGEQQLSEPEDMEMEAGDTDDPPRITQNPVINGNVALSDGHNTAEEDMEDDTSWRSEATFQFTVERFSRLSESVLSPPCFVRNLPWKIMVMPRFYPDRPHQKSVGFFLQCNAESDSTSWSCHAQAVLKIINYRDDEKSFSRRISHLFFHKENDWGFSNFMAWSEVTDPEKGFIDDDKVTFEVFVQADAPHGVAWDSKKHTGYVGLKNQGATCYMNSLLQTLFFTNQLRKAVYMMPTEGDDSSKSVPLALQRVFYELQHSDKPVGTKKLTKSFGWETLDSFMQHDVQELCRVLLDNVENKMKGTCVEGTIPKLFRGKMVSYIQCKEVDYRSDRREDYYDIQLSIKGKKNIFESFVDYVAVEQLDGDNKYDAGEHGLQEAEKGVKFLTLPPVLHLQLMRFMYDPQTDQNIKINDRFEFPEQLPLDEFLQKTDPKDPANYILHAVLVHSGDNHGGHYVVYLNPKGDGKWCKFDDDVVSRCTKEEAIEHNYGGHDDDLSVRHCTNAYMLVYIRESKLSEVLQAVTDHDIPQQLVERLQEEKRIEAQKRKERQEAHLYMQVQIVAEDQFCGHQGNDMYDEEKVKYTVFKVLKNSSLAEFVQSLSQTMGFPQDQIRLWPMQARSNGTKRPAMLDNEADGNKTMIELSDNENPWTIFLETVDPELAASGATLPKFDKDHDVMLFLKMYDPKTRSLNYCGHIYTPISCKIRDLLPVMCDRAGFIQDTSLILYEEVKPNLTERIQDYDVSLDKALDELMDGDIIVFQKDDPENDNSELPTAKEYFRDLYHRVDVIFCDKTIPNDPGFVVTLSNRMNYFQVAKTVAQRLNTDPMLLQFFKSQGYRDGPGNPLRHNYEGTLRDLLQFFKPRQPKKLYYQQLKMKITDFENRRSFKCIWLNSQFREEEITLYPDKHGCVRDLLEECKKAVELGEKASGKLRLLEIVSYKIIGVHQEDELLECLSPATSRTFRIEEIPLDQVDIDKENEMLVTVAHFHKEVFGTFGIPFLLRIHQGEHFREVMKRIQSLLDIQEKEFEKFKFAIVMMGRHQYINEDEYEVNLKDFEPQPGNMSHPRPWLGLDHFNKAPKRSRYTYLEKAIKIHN

RS4-11 [4] = experiment: Induction of apoptosis in human RS4-11 cells assessed as viable cells at 100 nM measured after 72 hrs by FITC-annexin-V/PI analysis (reference value: 91.41%); type: functional; conditions: read-out: Activity
RS4-11 [5] = experiment: Antitumor activity against human RS4-11 cells xenografted in NOD/SCID mouse model assessed as tumor growth inhibition at 20 mg/kg, ip daily measured after 18 days relative to control; type: functional; conditions: RS4-11, 432 h, time 18 day, read-out: TGI
RS4-11 [6] = experiment: Induction of apoptosis in human RS4-11 cells assessed as late apoptotic cells at 1 nM measured after 72 hrs by FITC-annexin-V/PI analysis (reference value: 3.23%); type: functional
[7] = molecular target: T1, von Hippel-Lindau disease tumor suppressor/Ubiquitin carboxyl-terminal hydrolase 7; experiment: PROTACT activity at USP7/VHL in human RS4;11 cells assessed as protein degradation at 10 nM measured after 6 hrs in presence of VHL-binder by Western blot analysis; type: cell-based
Target sequence in this assay (P40337 whole entry, looked up): as the sequence (P40337 whole entry, looked up) above
Target sequence in this assay (Q93009 whole entry, looked up): as the sequence (Q93009 whole entry, looked up) above

[8] = molecular target: T1, von Hippel-Lindau disease tumor suppressor/Ubiquitin carboxyl-terminal hydrolase 7; experiment: PROTACT activity at USP7/VHL in human OCI-Ly10 cells assessed as protein degradation at 10 to 100 nM measured after 12 hrs by Western blot analysis; type: cell-based; conditions: dose 10-100 nM
Target sequence in this assay (P40337 whole entry, looked up): as the sequence (P40337 whole entry, looked up) above
Target sequence in this assay (Q93009 whole entry, looked up): as the sequence (Q93009 whole entry, looked up) above

RS4-11 [9] = experiment: Antitumor activity against human RS4-11 cells xenografted in NOD/SCID mouse model assessed as tumor growth inhibition at 10 mg/kg, ip daily measured after 18 days relative to control; type: functional; conditions: RS4-11, 432 h, time 18 day, read-out: TGI
RS4-11 [10] = experiment: Antiproliferative activity against human RS4-11 cells with wild type p53 assessed as cell viability measured after 3 days by PMS-MTS assay; type: functional, cell-based; conditions: RS4-11, 72 h
[11] = molecular target: T1, von Hippel-Lindau disease tumor suppressor/Ubiquitin carboxyl-terminal hydrolase 7; experiment: PROTACT activity at USP7/VHL in human RS4;11 cells assessed as protein degradation at 10 nM measured after 24 hrs by Western blot analysis relative to control; type: cell-based
Target sequence in this assay (P40337 whole entry, looked up): as the sequence (P40337 whole entry, looked up) above
Target sequence in this assay (Q93009 whole entry, looked up): as the sequence (Q93009 whole entry, looked up) above

RS4-11 [12] = experiment: Induction of apoptosis in human RS4-11 cells assessed as late apoptotic cells at 1000 nM measured after 72 hrs by FITC-annexin-V/PI analysis (reference value: 3.23%); type: functional
[13] = molecular target: T1, von Hippel-Lindau disease tumor suppressor/Ubiquitin carboxyl-terminal hydrolase 7; experiment: PROTACT activity at USP7/VHL in human RS4;11 cells assessed as protein degradation at 10 to 100 nM measured after 12 hrs by Western blot analysis; type: cell-based; conditions: dose 10-100 nM
Target sequence in this assay (P40337 whole entry, looked up): as the sequence (P40337 whole entry, looked up) above
Target sequence in this assay (Q93009 whole entry, looked up): as the sequence (Q93009 whole entry, looked up) above

[14] = molecular target: T1, von Hippel-Lindau disease tumor suppressor/Ubiquitin carboxyl-terminal hydrolase 7; experiment: PROTACT activity at USP7/VHL in human RS4;11 cells assessed as protein degradation at 10 nM measured after 6 hrs in presence of NEDD8-activating enzyme inhibitor […] by Western blot analysis; type: cell-based
Target sequence in this assay (P40337 whole entry, looked up): as the sequence (P40337 whole entry, looked up) above
Target sequence in this assay (Q93009 whole entry, looked up): as the sequence (Q93009 whole entry, looked up) above

RS4-11 [15] = experiment: Induction of apoptosis in human RS4-11 cells assessed as viable cells at 1000 nM measured after 72 hrs by FITC-annexin-V/PI analysis (reference value: 91.41%); type: functional; conditions: read-out: Activity
RS4-11 [16] = experiment: Induction of apoptosis in human RS4-11 cells assessed as late apoptotic cells at 100 nM measured after 72 hrs by FITC-annexin-V/PI analysis (reference value: 3.23%); type: functional
RS4-11 [17] = experiment: Induction of apoptosis in human RS4-11 cells assessed as early apoptotic cells at 10 nM measured after 72 hrs by FITC-annexin-V/PI analysis (reference value: 5.36%); type: functional
RS4-11 [18] = experiment: Induction of apoptosis in human RS4-11 cells assessed as necrotic cells at 1 nM measured after 72 hrs by FITC-annexin-V/PI analysis (reference value: 0%); type: functional
[19] = molecular target: T1, von Hippel-Lindau disease tumor suppressor/Ubiquitin carboxyl-terminal hydrolase 7; experiment: PROTACT activity at USP7/VHL in human RS4;11 cells assessed as protein degradation measured after 24 hrs by Western blot analysis; type: cell-based
Target sequence in this assay (Q93009 whole entry): as the sequence (Q93009 whole entry, looked up) above
Target sequence in this assay (P40337 whole entry): as the sequence (P40337 whole entry, looked up) above

RS4-11 [20] = experiment: Antitumor activity against human RS4-11 cells xenografted in NOD/SCID mouse model assessed as tumor growth inhibition at 5 mg/kg, ip daily measured after 18 days relative to control; type: functional; conditions: RS4-11, 432 h, time 18 day, read-out: TGI
RS4-11 [21] = experiment: Induction of apoptosis in human RS4-11 cells assessed as late apoptotic cells at 10 nM measured after 72 hrs by FITC-annexin-V/PI analysis (reference value: 3.23%); type: functional
RS4-11 [22] = experiment: Induction of apoptosis in human RS4-11 cells assessed as viable cells at 1 nM measured after 72 hrs by FITC-annexin-V/PI analysis (reference value: 91.41%); type: functional; conditions: read-out: Activity
[23] = molecular target: T1, von Hippel-Lindau disease tumor suppressor/Ubiquitin carboxyl-terminal hydrolase 7; experiment: PROTACT activity at USP7/VHL in human RS4;11 cells assessed as protein degradation at 100 nM measured after 24 hrs by Western blot analysis relative to control; type: cell-based
RS4-11 [24] = experiment: Induction of apoptosis in human RS4-11 cells assessed as early apoptotic cells at 1 nM measured after 72 hrs by FITC-annexin-V/PI analysis (reference value: 5.36%); type: functional
[25] = molecular target: T1, von Hippel-Lindau disease tumor suppressor/Ubiquitin carboxyl-terminal hydrolase 7; experiment: PROTACT activity at USP7/VHL in human RS4;11 cells assessed as protein degradation at 10 nM measured after 6 hrs in presence of (R)-3-(4-(aminomethyl)phenyl)-6-((4-hydroxy-1-(3-phenylbutanoyl)piperidin-4-yl)methyl)-2-methyl-2,6-dihydro-7H-pyrazolo[4,3-d]pyrimidin-7-one by Western blot analysis; type: cell-based
RS4-11 [26] = experiment: Upregulation of p21 protein expression in human RS4-11 cells measured after 12 hrs incubation by Western blot analysis; type: functional, cell-based; conditions: dose 10-100 nM
[27] = molecular target: T1, von Hippel-Lindau disease tumor suppressor/Ubiquitin carboxyl-terminal hydrolase 7; experiment: PROTACT activity at USP7/VHL in human RS4;11 cells assessed as protein degradation at 10 nM measured after 2 to 4 hrs by Western blot analysis; type: cell-based; conditions: time 2-4 hrs
RS4-11 [28] = experiment: Upregulation of p53 protein expression in human RS4-11 cells measured after 12 hrs incubation by Western blot analysis; type: functional, cell-based; conditions: dose 10-100 nM
[29] = molecular target: T1, von Hippel-Lindau disease tumor suppressor/Ubiquitin carboxyl-terminal hydrolase 7; experiment: PROTACT activity at USP7/VHL in human RS4;11 cells assessed as protein degradation at 10 nM measured after 6 hrs in presence of proteasome inhibitors PS-341 by Western blot analysis; type: cell-based
RS4-11 [30] = experiment: Induction of apoptosis in human RS4-11 cells assessed as viable cells at 10 nM measured after 72 hrs by FITC-annexin-V/PI analysis (reference value: 91.41%); type: functional; conditions: read-out: Activity
REH = experiment: Antiproliferative activity against human REH cells with wild type p53 assessed as cell viability measured after 3 days by PMS-MTS assay; type: functional, cell-based; conditions: 72 h
[31] = molecular target: T1, von Hippel-Lindau disease tumor suppressor/Ubiquitin carboxyl-terminal hydrolase 7; experiment: PROTACT activity at USP7/VHL in human RS4;11 cells assessed as selective USP7 degradation at 100 nM measured after 4 hrs by proteomics analysis; type: cell-based
[32] = Toxicity in NOD/SCID mouse xenografted with human RS4-11 cells assessed as signs of toxicity at 5 to 20 mg/kg, ip daily measured after 18 days relative to control; type: organism-based; conditions: in vivo, 432 h, dose 5-20 mg/kg, time 18 day

- IC50 (RS4-11 [1]): > 20000 nM
- Emax [3]: 93.1%
- Activity [7]: inactive
- Activity [8]: Active
- IC50 (RS4-11 [10]): 0.5 nM
- Activity [11]: 91.6%
- Activity [13]: Active
- Activity [14]: inactive
- DC50 [19]: 0.74 nM
- Activity [23]: 91.7%
- Activity [25]: inactive
- Activity [27]: Active
- Activity [29]: inactive
- Activity [31]: Active
Structure (SMILES): Cc1ncsc1-c1ccc([C@H](C)NC(=O)[C@@H]2C[C@@H](O)CN2C(=O)[C@@H](c2cc(N3CCN(Cc4ccc(-c5c6ncn(CC7(O)CCN(C(=O)C[C@@H](C)c8ccccc8)CC7)c(=O)c6nn5C)cc4)CC3)no2)C(C)C)cc1
- Activity (RS4-11 [2]): Active
- viability at 0.1 µM (RS4-11 [4]): 59.7%
- inhibition in vivo at 20 mg/kg (RS4-11 [5]): 78.7%
- Activity (RS4-11 [6]): 12.98%
- inhibition in vivo at 10 mg/kg (RS4-11 [9]): 60.8%
- Activity (RS4-11 [12]): 24.89%
- viability at 1 µM (RS4-11 [15]): 55.3%
- Activity (RS4-11 [16]): 20.73%
- Activity (RS4-11 [17]): 17.36%
- Activity (RS4-11 [18]): 0%
- inhibition in vivo at 5 mg/kg (RS4-11 [20]): 64.7%
- Activity (RS4-11 [21]): 16.98%
- viability at 0.001 µM (RS4-11 [22]): 74.6%
- Activity (RS4-11 [24]): 12.45%
- Activity (RS4-11 [26]): Dose-Dependent Effect
- Activity (RS4-11 [28]): Dose-Dependent Effect
- viability at 0.01 µM (RS4-11 [30]): 65.7%
- IC50 (REH): 8.3 nM
- Activity [32]: Non-Toxic
